Measured values from patent US11168073B2, “3,3-difluoroallylamines or salts thereof and pharmaceutical compositions comprising the same” (YUHAN CORPORATION, priority 2018, dated 2021).
Counter-ions that a name gives are not always drawn. Like-named read-outs stand apart in the source and are kept apart here.

Columns and labels:
Format in all cases: biochemical
recombinant human VAP-1 = target: T1, recombinant human VAP-1 (Homo sapiens, UniProt Q16853); assay: Activity evaluation on recombinant human VAP-1 (Amplex Red/HRP-coupled hydrogen peroxide assay, benzylamine substrate); settings: read-out: Inhibitory Activity (IC50, nM) human VAP-1
T1 construct: purchased R&D systems
T1 sequence (Q16853 1-763): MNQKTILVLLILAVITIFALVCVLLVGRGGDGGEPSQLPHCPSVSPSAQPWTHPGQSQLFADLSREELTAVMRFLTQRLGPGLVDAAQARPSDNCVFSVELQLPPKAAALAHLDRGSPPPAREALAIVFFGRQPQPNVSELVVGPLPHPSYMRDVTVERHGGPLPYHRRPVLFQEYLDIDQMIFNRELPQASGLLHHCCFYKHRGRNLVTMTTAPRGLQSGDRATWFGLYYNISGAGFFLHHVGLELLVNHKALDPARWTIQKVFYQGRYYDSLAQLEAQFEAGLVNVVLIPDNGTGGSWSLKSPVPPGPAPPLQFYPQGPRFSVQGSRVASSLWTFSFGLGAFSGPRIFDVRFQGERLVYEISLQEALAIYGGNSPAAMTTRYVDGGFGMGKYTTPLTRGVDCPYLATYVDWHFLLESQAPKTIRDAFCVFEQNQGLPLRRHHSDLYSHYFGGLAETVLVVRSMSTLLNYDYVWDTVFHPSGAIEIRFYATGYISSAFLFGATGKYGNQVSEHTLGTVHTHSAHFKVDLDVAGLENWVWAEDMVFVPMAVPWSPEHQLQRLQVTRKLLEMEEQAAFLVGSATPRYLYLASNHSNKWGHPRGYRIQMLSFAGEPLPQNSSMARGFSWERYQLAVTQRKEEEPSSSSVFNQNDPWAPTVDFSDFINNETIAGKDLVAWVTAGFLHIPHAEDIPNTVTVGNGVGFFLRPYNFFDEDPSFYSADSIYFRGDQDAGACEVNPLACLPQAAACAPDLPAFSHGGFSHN
Outline: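 Hydrogen peroxide from benzylamine (1 mM) oxidation by human recombinant VAP-1 detected via HRP-coupled Amplex Red (200 uM) fluorescence, kinetic over 1–2 h. Enzyme and compound preincubated 30 min at 37 °C, pH 7.4 phosphate; 8-point dose response, signal-rate decrease versus DMSO control fitted to four-parameter logistic for IC50.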

[1] = target: T2, recombinant human MAO-A (monoamine oxidase-A) (Homo sapiens, UniProt P21397); assay: Activity evaluation on recombinant human MAO-A (Amplex Red/HRP-coupled assay, 0.5 mM tyramine substrate); settings: read-out: Inhibitory Activity (IC50, nM) MAO-A
T2 construct: purchased Sigma-Aldrich
T2 sequence (P21397 1-527): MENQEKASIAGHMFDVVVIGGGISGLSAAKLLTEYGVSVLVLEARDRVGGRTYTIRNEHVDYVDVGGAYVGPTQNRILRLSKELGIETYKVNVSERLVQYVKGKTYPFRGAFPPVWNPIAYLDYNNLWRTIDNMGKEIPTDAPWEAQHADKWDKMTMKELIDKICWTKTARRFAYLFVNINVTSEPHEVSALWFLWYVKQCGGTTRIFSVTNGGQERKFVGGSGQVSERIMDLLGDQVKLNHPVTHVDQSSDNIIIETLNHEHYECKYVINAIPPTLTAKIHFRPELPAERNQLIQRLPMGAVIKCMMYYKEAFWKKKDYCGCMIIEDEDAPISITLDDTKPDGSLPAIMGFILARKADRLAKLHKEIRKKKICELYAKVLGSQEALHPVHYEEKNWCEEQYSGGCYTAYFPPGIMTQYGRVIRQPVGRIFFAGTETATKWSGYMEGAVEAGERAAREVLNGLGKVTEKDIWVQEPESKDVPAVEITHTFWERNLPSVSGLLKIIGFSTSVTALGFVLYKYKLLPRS
Outline: (§1)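 Using an HRP-coupled Amplex Red readout (544/590 nm, kinetic over 1–2 h), IC50 values were fitted by 4-parameter logistic model to percent decrease in signal rate against DMSO control. Compounds (1:3 dilutions, 8 points, <1% DMSO) sat 30 min at 37 °C with enzyme in pH 7.4 phosphate buffer before substrate, 200 uM Amplex Red and HRP were added.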

[2] = target: T3, recombinant human MAO-B (monoamine oxidase-B) (Homo sapiens, UniProt P27338); assay: Activity evaluation on recombinant human MAO-B (Amplex Red/HRP-coupled assay, 1 mM benzylamine substrate); settings: read-out: Inhibitory Activity (IC50, nM) MAO-B
T3 construct: purchased Sigma-Aldrich
T3 sequence (P27338 1-520): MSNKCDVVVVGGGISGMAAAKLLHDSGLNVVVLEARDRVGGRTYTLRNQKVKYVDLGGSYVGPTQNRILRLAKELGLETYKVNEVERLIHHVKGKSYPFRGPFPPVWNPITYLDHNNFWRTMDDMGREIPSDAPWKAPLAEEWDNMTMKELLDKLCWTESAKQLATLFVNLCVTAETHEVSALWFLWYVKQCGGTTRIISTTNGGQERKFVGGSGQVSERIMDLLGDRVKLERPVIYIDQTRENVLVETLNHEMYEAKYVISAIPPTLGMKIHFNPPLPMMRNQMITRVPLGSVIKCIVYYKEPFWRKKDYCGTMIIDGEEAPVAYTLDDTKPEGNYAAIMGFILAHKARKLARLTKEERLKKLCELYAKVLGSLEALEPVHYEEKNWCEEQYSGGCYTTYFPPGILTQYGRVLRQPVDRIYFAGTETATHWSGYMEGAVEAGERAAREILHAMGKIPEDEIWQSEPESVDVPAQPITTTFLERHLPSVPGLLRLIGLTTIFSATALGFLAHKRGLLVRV
Outline: as §1

[3] = target: T4, recombinant human DAO (diamine oxidase) (Homo sapiens, UniProt P19801); assay: Activity evaluation on recombinant human DAO (Amplex Red/HRP-coupled assay, 1 mM putrescine substrate); settings: read-out: Inhibitory Activity (IC50, nM) DAO
T4 construct: purchased R&D systems
T4 sequence (P19801 20-751): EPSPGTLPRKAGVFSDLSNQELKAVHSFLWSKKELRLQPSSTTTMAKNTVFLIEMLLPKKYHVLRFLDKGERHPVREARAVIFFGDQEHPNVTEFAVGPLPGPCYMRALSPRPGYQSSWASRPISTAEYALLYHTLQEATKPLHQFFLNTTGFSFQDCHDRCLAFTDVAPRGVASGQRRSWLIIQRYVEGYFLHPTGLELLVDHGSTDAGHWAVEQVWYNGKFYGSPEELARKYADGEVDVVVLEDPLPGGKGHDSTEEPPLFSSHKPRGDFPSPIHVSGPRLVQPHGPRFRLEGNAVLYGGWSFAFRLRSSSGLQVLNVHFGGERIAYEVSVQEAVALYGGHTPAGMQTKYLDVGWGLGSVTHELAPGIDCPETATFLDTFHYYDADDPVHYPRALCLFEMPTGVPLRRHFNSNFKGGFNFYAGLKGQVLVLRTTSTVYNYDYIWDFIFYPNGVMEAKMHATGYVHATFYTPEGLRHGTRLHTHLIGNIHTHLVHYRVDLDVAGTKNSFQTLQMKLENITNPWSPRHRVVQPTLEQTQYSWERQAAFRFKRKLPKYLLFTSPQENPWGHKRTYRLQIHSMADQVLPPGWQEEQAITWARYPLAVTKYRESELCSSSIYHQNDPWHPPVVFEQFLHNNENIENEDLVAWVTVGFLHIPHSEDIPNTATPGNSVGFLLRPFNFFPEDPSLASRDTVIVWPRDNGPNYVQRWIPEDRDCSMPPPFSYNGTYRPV
Outline: as §1

[4] = recombinant human VAP-1, 30 min preincubation at 37° C., 1 mM benzylamine
[5] = recombinant human VAP-1, benzylamine substrate

Structure (SMILES)	IC50 (recombinant human VAP-1; [4])	IC50 ([1]; 0.5 mM tyramine)	IC50 ([2]; 1 mM benzylamine)	IC50 ([3]; 1 mM putrescine)	IC50 (recombinant human VAP-1; [5])	IC50 ([1]; 0.5 mM tyramine substrate)	IC50 ([2]; 1 mM benzylamine substrate)	IC50 ([3]; 1 mM putrescine substrate)
Cc1cc(-n2cnn(CC(CN)=C(F)F)c2=O)cnc1-c1ccc2c(c1)CCC(=O)N2C [Example 81, 6-[5-[1-[2-(aminomethyl)-3,3-difluoro-allyl]-5-oxo-1,2,4-triazol-4-yl]-3-methyl-2-pyridyl]-1-methyl-3,4-dihydroquinolin-2-one Trifluoroacetate]	0.4 nM	> 100000 nM	3500 nM	27 nM	–	–	–	–
CC(C)n1cc(-c2csc(Cn3cnn(CC(CN)=C(F)F)c3=O)c2)cn1 [Example 195, 2-[2-(aminomethyl)-3,3-difluoro-allyl]-4-[[4-(1-isopropylpyrazol-4-yl)-2-thienyl]methyl]-1,2,4-triazol-3-one Trifluoroacetate]	–	–	–	–	2 nM	> 100000 nM	38000 nM	31000 nM
Cc1cc(-c2ccc(N3CCCC3=O)cc2)cnc1-n1cnn(CC(CN)=C(F)F)c1=O [Example 230, 2-[2-(aminomethyl)-3,3-difluoro-allyl]-4-[3-methyl-5-[4-(2-oxopyrrolidin-1-yl)phenyl]-2-pyridyl]-1,2,4-triazol-3-one Trifluoroacetate]	–	–	–	–	0.7 nM	> 100000 nM	77000 nM	24000 nM
NCC(Cn1ncn(Cc2cc3ccc(-c4ccc(N5CCNCC5)cc4)cc3s2)c1=O)=C(F)F [Example 198, 2-[2-(aminomethyl)-3,3-difluoro-allyl]-4-[[6-(4-piperazin-1-ylphenyl)benzothiophen-2-yl]methyl]-1,2,4-triazol-3-one Ditrifluoroacetate]	–	–	–	–	4.6 nM	> 100000 nM	23000 nM	880 nM
CC(=O)N1CCN(c2ccc(-c3ccc(Cn4cnn(CC(CN)=C(F)F)c4=O)s3)cc2)CC1 [Example 108, 4-[[5-[4-(4-acetylpiperazin-1-yl)phenyl]-2-thienyl]methyl]-2-[2-(aminomethyl)-3,3-difluoro-allyl]-1,2,4-triazol-3-one Trifluoroacetate]	2 nM	> 10000 nM	> 10000 nM	42000 nM	–	–	–	–
CCn1cc(-c2cccc(-n3cnn(CC(CN)=C(F)F)c3=O)c2C)cn1 [Example 260, 2-[2-(aminomethyl)-3,3-difluoro-allyl]-4-[3-(1-ethylpyrazol-4-yl)-2-methyl-phenyl]-1,2,4-triazol-3-one Trifluoroacetate]	–	–	–	–	3.7 nM	> 100000 nM	> 100000 nM	> 100000 nM
CS(=O)(=O)c1ccc(-c2csc(Cn3cnn(CC(CN)=C(F)F)c3=O)c2)cc1 [Example 146, 2-[2-(aminomethyl)-3,3-difluoro-allyl]-4-[[4-(4-methylsulfonylphenyl)-2-thienyl]methyl]-1,2,4-triazol-3-one Trifluoroacetate]	1.1 nM	> 100000 nM	33000 nM	9200 nM	–	–	–	–
Cc1cc(C#Cc2cnc3c(c2)NC(=O)CO3)cnc1-n1cnn(CC(CN)=C(F)F)c1=O [Example 247, 7-[2-[6-[1-[2-(aminomethyl)-3,3-difluoro-allyl]-5-oxo-1,2,4-triazol-4-yl]-5-methyl-3-pyridyl]ethynyl]-1H-pyrido[2,3-b][1,4]oxazin-2-one Trifluoroacetate]	–	–	–	–	0.3 nM	> 100000 nM	> 100000 nM	43000 nM
CC(=O)Nc1nc2ccc(-c3ccc(Cn4cnn(CC(CN)=C(F)F)c4=O)s3)cc2s1 [Example 131, N-[6-[5-[[1-[2-(aminomethyl)-3,3-difluoro-allyl]-5-oxo-1,2,4-triazol-4-yl]methyl]-2-thienyl]-1,3-benzothiazol-2-yl]acetamide trifluoroacetate]	0.4 nM	7800 nM	12000 nM	> 100000 nM	–	–	–	–
Cc1cc(-c2cccc(-n3cnn(CC(CN)=C(F)F)c3=O)c2)cc2c1NC(=O)CC2 [Example 22, 6-[3-[1-[2-(aminomethyl)-3,3-difluoro-allyl]-5-oxo-1,2,4-triazol-4-yl]phenyl]-8-methyl-3,4-dihydro-1H-quinolin-2-one Trifluoroacetate]	0.8 nM	> 100000 nM	> 100000 nM	> 10000 nM	–	–	–	–
NCC(Cn1ncn(Cc2ccc(C#Cc3ccc4c(n3)OCCN4)s2)c1=O)=C(F)F [Example 168, 2-[2-(aminomethyl)-3,3-difluoro-allyl]-4-[[5-[2-(2,3-dihydro-1H-pyrido[2,3-b][1,4]oxazin-6-yl)ethynyl]-2-thienyl]methyl]-1,2,4-triazol-3-one Ditrifluoroacetate]	1 nM	> 10000 nM	45000 nM	> 100000 nM	–	–	–	–
NCC(Cn1ncn(-c2cccc(Br)c2)c1=O)=C(F)F [Example 2, 2-[2-(aminomethyl)-3,3-difluoro-allyl]-4-(3-bromophenyl)-1,2,4-triazol-3-one Trifluoroacetate]	6.2 nM	> 100000 nM	> 100000 nM	46000 nM	–	–	–	–
